Measurements as given in patent US12685312B2, “Sulfonamide apyrase inhibitors” (Texas Crop Science, Inc., priority 2022, dated 2026).

Each compound was assayed on apyrase (assay: Screen for apyrase inhibitors (Method 1, in vitro phosphate-release absorbance assay)). Conditions: inhibitor conc at 1 mM stock, 1 hr room temperature, absorbance 630 nm; rounded average of two assay results.
Assay type: biochemical
Method in brief: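 Phosphate-release colorimetric assay (Windsor method) in 60 mM Hepes, 3 mM MgCl2, 3 mM CaCl2, 3 mM ATP, pH 6.5, with compound or DMSO control added. Released phosphate developed with ammonium molybdate and ascorbic acid/TCA, then stopped with citrate/acetic acid.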

| Structure (SMILES) | % Inhibition of Apyrase |
| --- | --- |
| CCc1ccccc1NC(=O)c1cccc(S(=O)(=O)N2CCc3ccccc32)c1 [I-566, N-(2-ethylphenyl)-3-(indolin-1-ylsulfonyl)benzamide] | 51% |
| O=C(c1cccc(S(=O)(=O)N2CCc3ccccc32)c1)N1CCc2ccccc21 [I-567, indolin-1-yl(3-(indolin-1-ylsulfonyl)phenyl)methanone] | 51% |
| CCOc1ccc(NS(=O)(=O)c2cccc(C(=O)N3CCCc4ccccc43)c2)cc1 [I-568, N-(4-ethoxyphenyl)-3-(1,2,3,4-tetrahydroquinoline-1-carbonyl)benzenesulfonamide] | 51% |
| Cc1ccc(C(=O)N2CCc3ccccc32)cc1S(=O)(=O)Nc1ccc(F)cc1 [I-569, N-(4-fluorophenyl)-5-(indoline-1-carbonyl)-2-methylbenzenesulfonamide] | 51% |
| COc1cc(OC)c(NS(=O)(=O)c2ccc(C)c(C(=O)N3CCc4ccccc43)c2)cc1Cl [I-570, N-(5-chloro-2,4-dimethoxyphenyl)-3-(indoline-1-carbonyl)-4-methylbenzenesulfonamide] | 51% |
| CC1Cc2ccccc2N1S(=O)(=O)c1cccc(C(=O)N2CCCc3cc(F)c(F)cc32)c1 (centres unmarked) [I-571, (6,7-difluoro-3,4-dihydroquinolin-1(2H)-yl)(3-((2-methylindolin-1-yl)sulfonyl)phenyl)methanone] | 51% |
| O=C(Nc1ccccc1C(=O)N1CCCCC1)c1cccc(S(=O)(=O)N2CCc3ccccc32)c1 [I-572, 3-(indolin-1-ylsulfonyl)-N-(2-(piperidine-1-carbonyl)phenyl)benzamide] | 50% |
| O=C(Nc1ccc2c(c1)OCCCO2)c1cccc(S(=O)(=O)Nc2ccc3c(c2)OCCO3)c1 [I-573, N-(3,4-dihydro-2H-benzo[b][1,4]dioxepin-7-yl)-3-(N-(2,3-dihydrobenzo[b][1,4]dioxin-6-yl)sulfamoyl)benzamide] | 50% |
| Cc1ccc2c(c1)CCCN2C(=O)c1cccc(S(=O)(=O)Nc2ccccc2F)c1 [I-574, N-(2-fluorophenyl)-3-(6-methyl-1,2,3,4-tetrahydroquinoline-1-carbonyl)benzenesulfonamide] | 49% |
| COc1ccc(NC(=O)c2cccc(S(=O)(=O)N3CCc4ccccc43)c2)c(OC)c1 [I-575, N-(2,4-dimethoxyphenyl)-3-(indolin-1-ylsulfonyl)benzamide] | 49% |
| O=C(c1cccc(S(=O)(=O)Nc2ccc(F)cc2)c1)N1CCc2ccccc21 [I-576, N-(4-fluorophenyl)-3-(indoline-1-carbonyl)benzenesulfonamide] | 49% |
| COc1ccc(S(=O)(=O)N2CCc3ccccc32)cc1C(=O)Nc1ccc2c(c1)OCCO2 [I-577, N-(2,3-dihydrobenzo[b][1,4]dioxin-6-yl)-5-(indolin-1-ylsulfonyl)-2-methoxybenzamide] | 48% |
| COc1ccc(S(=O)(=O)N2CCCCC2)cc1NC(=O)c1cccc(S(=O)(=O)Nc2ccccc2OC)c1 [I-578, N-(2-methoxy-5-(piperidin-1-ylsulfonyl)phenyl)-3-(N-(2-methoxyphenyl)sulfamoyl)benzamide] | 48% |
| CC1Cc2ccccc2N1C(=O)c1cccc(S(=O)(=O)Nc2cc(C(F)(F)F)ccc2Cl)c1 (centres unmarked) [I-579, N-(2-chloro-5-(trifluoromethyl)phenyl)-3-(2-methylindoline-1-carbonyl)benzenesulfonamide] | 48% |
| COC(=O)c1cccc2c1CCCN2C(=O)c1cccc(S(=O)(=O)N(C)c2ccccc2)c1 [I-580, methyl 1-(3-(N-methyl-N-phenylsulfamoyl)benzoyl)-1,2,3,4-tetrahydroquinoline-5-carboxylate] | 47% |
| CCOc1ccc(NC(=O)c2cc(S(=O)(=O)N3CCc4ccccc43)ccc2OC)cc1 [I-581, N-(4-ethoxyphenyl)-5-(indolin-1-ylsulfonyl)-2-methoxybenzamide] | 47% |
| CC1Cc2ccccc2N1S(=O)(=O)c1cccc(C(=O)Nc2ccc3c(c2)OCCCO3)c1 (centres unmarked) [I-582, N-(3,4-dihydro-2H-benzo[b][1,4]dioxepin-7-yl)-3-((2-methylindolin-1-yl)sulfonyl)benzamide] | 47% |
| Cc1nc2cc(NC(=O)c3cccc(S(=O)(=O)N4c5ccccc5CC4C)c3)ccc2o1 (centres unmarked) [I-583, N-(2-methylbenzo[d]oxazol-5-yl)-3-((2-methylindolin-1-yl)sulfonyl)benzamide] | 47% |
| CC(=O)c1cc2c(cc1NC(=O)c1cccc(S(=O)(=O)N3CCc4ccccc43)c1)OCO2 [I-584, N-(6-acetylbenzo[d][1,3]dioxol-5-yl)-3-(indolin-1-ylsulfonyl)benzamide] | 46% |
| O=C(Nc1ccccc1N1CCOCC1)c1cccc(S(=O)(=O)N2CCc3ccccc32)c1 [I-585, 3-(indolin-1-ylsulfonyl)-N-(2-morpholinophenyl)benzamide] | 45% |
| CCOc1ccc(NC(=O)c2cccc(S(=O)(=O)Nc3ccc4c(c3)OCO4)c2)cc1OC [I-586, 3-(N-(benzo[d][1,3]dioxol-5-yl)sulfamoyl)-N-(4-ethoxy-3-methoxyphenyl)benzamide] | 44% |

| Structure (SMILES) | % Inhibition of Apyrase |
| --- | --- |
| Cc1nc2cc(NC(=O)c3cccc(S(=O)(=O)N4CCc5ccccc54)c3)ccc2o1 [I-587, 3-(indolin-1-ylsulfonyl)-N-(2-methylbenzo[d]oxazol-5-yl)benzamide] | 44% |
| COc1ccc(NC(=O)c2ccc(Cl)c(S(=O)(=O)N3CCc4ccccc43)c2)cc1OC [I-588, 4-chloro-N-(3,4-dimethoxyphenyl)-3-(indolin-1-ylsulfonyl)benzamide] | 43% |
| CC(=O)Nc1cccc(NC(=O)c2cccc(S(=O)(=O)N3c4ccccc4CC3C)c2)c1 (centres unmarked) [I-589, N-(3-acetamidophenyl)-3-((2-methylindolin-1-yl)sulfonyl)benzamide] | 42% |
| COc1ccc(NC(=O)c2cccc(S(=O)(=O)Nc3ccc4c(c3)OCO4)c2)c(OC)c1 [I-590, 3-(N-(benzo[d][1,3]dioxol-5-yl)sulfamoyl)-N-(2,4-dimethoxyphenyl)benzamide] | 42% |
| Cc1ccc(N(C)S(=O)(=O)c2cccc(C(=O)Nc3ccc(C)cc3C)c2)cc1 [I-591, N-(2,4-dimethylphenyl)-3-(N-methyl-N-(p-tolyl)sulfamoyl)benzamide] | 41% |
| Cc1nc2ccc(NC(=O)c3cccc(S(=O)(=O)N4CCc5ccccc54)c3)cc2s1 [I-592, 3-(indolin-1-ylsulfonyl)-N-(2-methylbenzo[d]thiazol-6-yl)benzamide] | 41% |
| COc1ccc(S(=O)(=O)N2CCc3ccccc32)cc1C(=O)Nc1ccc(C)c(C)c1 [I-593, N-(3,4-dimethylphenyl)-5-(indolin-1-ylsulfonyl)-2-methoxybenzamide] | 38% |
| CCNC(=O)c1cccc(NC(=O)c2cccc(S(=O)(=O)Nc3cccc(C(F)(F)F)c3)c2)c1 [I-594, N-ethyl-3-(3-(N-(3-(trifluoromethyl)phenyl)sulfamoyl)benzamido) benzamide] | 36% |
| O=C(Nc1cccc2ncccc12)c1cccc(S(=O)(=O)N2CCc3ccccc32)c1 [I-596, 3-(indolin-1-ylsulfonyl)-N-(quinolin-5-yl)benzamide] | 35% |
| COc1ccc(S(=O)(=O)N2CCc3ccccc32)cc1C(=O)Nc1ccc(OC(F)(F)F)cc1 [I-597, 5-(indolin-1-ylsulfonyl)-2-methoxy-N-(4-(trifluoromethoxy)phenyl)benzamide] | 35% |
| O=C(Nc1ccc2[nH]c(=O)[nH]c2c1)c1cccc(S(=O)(=O)N2CCc3ccccc32)c1 [I-598, 3-(indolin-1-ylsulfonyl)-N-(2-oxo-2,3-dihydro-1H-benzo[d]imidazol-5-yl)benzamide] | 31% |
| COc1ccc(Cl)cc1NS(=O)(=O)c1cccc(C(=O)Nc2ccc(N(C)C)nc2)c1 [I-599, 3-(N-(5-chloro-2-methoxyphenyl)sulfamoyl)-N-(6-(dimethylamino)pyridin-3-yl)benzamide] | 30% |
| O=C(Nc1ccccc1N1CCCC1=O)c1cccc(S(=O)(=O)N2CCc3ccccc32)c1 [I-600, 3-(indolin-1-ylsulfonyl)-N-(2-(2-oxopyrrolidin-1-yl)phenyl)benzamide] | 29% |
| O=C(Nc1ccc(N2CCOCC2)cc1)c1cccc(S(=O)(=O)N2CCc3ccccc32)c1 [I-601, 3-(indolin-1-ylsulfonyl)-N-(4-morpholinophenyl)benzamide] | 29% |
| CC1Cc2ccccc2N1S(=O)(=O)c1cccc(C(=O)Nc2cccc3ncccc23)c1 (centres unmarked) [I-602, 3-((2-methylindolin-1-yl)sulfonyl)-N-(quinolin-5-yl)benzamide] | 28% |
| CS(=O)(=O)c1ccc2c(c1)N(C(=O)c1cccc(S(=O)(=O)N3CCc4ccccc43)c1)CCC2 [I-603, (3-(indolin-1-ylsulfonyl)phenyl)(7-(methylsulfonyl)-3,4-dihydroquinolin-1(2H)-yl)methanone] | 25% |
| O=C(Nc1ccccc1Cl)c1cccc(S(=O)(=O)N2CCc3ccccc32)c1 [I-604, N-(2-chlorophenyl)-3-(indolin-1-ylsulfonyl)benzamide] | 23% |
| COc1cc(C)c(NC(=O)c2cccc(S(=O)(=O)N3CCc4ccccc43)c2)cc1OC [I-605, N-(4,5-dimethoxy-2-methylphenyl)-3-(indolin-1-ylsulfonyl)benzamide] | 23% |
| COc1ccc(NS(=O)(=O)c2cccc(C(=O)Nc3cnc4[nH]nc(C)c4c3)c2)cc1 [I-606, 3-(N-(4-methoxyphenyl)sulfamoyl)-N-(3-methyl-1H-pyrazolo[3,4-b]pyridin-5-yl)benzamide] | 16% |
| NC(=O)c1ccc(NC(=O)c2cccc(S(=O)(=O)N3CCc4ccccc43)c2)cc1 [I-607, N-(4-carbamoylphenyl)-3-(indolin-1-ylsulfonyl)benzamide] | 16% |
